Data published in ChEMBL document CHEMBL1201862, “PubChem BioAssay data set” (2004).
Active and inactive are the calls of the source.

Tests used:
[1] = THP-1 cell cytotoxicity, dose response, cytotoxicity control for non-replicating M. tuberculosis project (AID 489025); type: functional
[2] = Luminescence Cell-Based Dose Retest to Confirm Inhibitors of Cancer Stem Cells. [Related pubchem assays (depositor defined):AID2717, AID2721]; type: functional; conditions: Homo sapiens
cells [3] = type: functional
[4] = molecular target: T1, Replicative DNA helicase DnaB (Mycobacterium tuberculosis, UniProt P9WMR3); assay: DnaB intein splicing inhibitors, dose response, biochemical, cell-free fluorescence (AID 449749); type: functional
T1 sequence (P9WMR3 whole entry): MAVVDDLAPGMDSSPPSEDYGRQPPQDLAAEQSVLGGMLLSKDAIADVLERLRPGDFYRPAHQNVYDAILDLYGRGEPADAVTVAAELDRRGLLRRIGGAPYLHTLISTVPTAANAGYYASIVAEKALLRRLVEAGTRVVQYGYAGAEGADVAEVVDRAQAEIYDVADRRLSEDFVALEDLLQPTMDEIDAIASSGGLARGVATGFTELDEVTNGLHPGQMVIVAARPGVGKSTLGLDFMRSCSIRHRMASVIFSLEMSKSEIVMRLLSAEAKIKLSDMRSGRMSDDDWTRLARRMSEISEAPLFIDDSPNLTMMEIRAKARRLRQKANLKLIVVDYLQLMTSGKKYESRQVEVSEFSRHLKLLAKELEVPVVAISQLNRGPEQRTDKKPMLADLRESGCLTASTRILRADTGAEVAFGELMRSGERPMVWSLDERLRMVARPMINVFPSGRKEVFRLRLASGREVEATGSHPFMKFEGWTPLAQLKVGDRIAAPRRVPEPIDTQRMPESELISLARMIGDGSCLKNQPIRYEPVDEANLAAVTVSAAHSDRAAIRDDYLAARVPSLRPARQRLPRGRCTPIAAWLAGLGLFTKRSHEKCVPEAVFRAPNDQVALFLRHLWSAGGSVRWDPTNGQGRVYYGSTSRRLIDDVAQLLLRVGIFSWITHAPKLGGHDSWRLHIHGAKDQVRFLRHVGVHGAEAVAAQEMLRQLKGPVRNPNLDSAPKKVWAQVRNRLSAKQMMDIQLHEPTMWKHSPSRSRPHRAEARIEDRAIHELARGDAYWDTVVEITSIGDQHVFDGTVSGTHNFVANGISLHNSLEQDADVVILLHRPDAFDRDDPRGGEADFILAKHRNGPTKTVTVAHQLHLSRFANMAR

Protein RecA = molecular target: T2, Protein RecA (Mycobacterium tuberculosis, UniProt P9WHJ3); assay: Fluorescence Cell-Free Homogeneous Dose Retest to Identify Inhibitors of RecA-Intein Splicing Activity. [Related pubchem assays (depositor defined):AID2097, AID2223, AID489010, AID492950]; type: functional
T2 sequence (P9WHJ3 whole entry): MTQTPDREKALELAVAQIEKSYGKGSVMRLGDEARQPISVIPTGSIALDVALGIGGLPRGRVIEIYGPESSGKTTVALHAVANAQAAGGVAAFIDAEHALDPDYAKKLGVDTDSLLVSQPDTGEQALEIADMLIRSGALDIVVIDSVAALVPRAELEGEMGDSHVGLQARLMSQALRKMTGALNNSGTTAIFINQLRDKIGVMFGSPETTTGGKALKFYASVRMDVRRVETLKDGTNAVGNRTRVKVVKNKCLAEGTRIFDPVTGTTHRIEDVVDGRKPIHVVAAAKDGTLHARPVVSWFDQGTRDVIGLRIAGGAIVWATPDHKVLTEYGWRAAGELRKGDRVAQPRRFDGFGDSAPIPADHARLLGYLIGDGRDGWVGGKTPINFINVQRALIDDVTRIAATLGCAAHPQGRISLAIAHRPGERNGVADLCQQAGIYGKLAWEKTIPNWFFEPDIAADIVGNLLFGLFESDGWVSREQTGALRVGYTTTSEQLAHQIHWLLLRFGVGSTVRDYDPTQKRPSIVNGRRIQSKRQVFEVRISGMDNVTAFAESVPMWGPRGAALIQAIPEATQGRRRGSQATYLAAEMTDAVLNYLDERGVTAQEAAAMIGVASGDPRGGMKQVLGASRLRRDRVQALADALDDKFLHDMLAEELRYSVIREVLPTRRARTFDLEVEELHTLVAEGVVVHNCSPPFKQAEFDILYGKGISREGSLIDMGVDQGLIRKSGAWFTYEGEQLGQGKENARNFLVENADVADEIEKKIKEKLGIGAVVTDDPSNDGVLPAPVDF

[5] = reduction of Shn3 3'UTR-driven luciferase in osteoblasts – cell-based, Clone20 osteoblasts, firefly luciferase, cherry-picked, dose response (AID 624132); type: functional;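 also: firefly luciferase luminescence from reporter carrying the Shn3 3'UTR in osteoblasts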
[6] = loss of viability in HepG2 cells – cell-based, CellTiter-Glo, cherry-picked, cytotoxicity control for Shn3 inhibitor project, dose response (AID 624134); type: functional
[7] = non-specific 3'UTR reporter inhibition in Clone20-Shn3RL – cell-based, Renilla luciferase, cherry-picked, counter-screen for Shn3 inhibitor project, dose response (AID 624133); type: functional
[8] = Fluorescence-based cell-based high throughput dose response assay for inhibitors of the interaction of nucleotide-binding oligomerization domain containing 2 (NOD2) and the receptor-interacting serine-threonine kinase 2 (RIPK2).; type: functional; conditions: Homo sapiens
[9] = Shn3 3'UTR reporter signal decrease – cell-based, Clone20 osteoblasts, firefly luciferase, cherry-pick, set 2, Schnurri-3 inhibitor project, dose response (AID 720490); type: functional;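 also: actives lower the luminescence signal as inhibitors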
[10] = reduced cellular PGC1a acetyl-lysine signal – cell-based, cherry-picked samples, dose response (AID 720514); type: functional;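 also: potency may reflect raised or lowered acetylation signal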
[11] = EF1alpha-driven Renilla reporter with control 3'UTR suppression – Clone20-Shn3RL cells, dual-Glo, cherry-pick, set 2, counter-screen for Shn3 3'UTR targeting project, dose response (AID 720724); type: functional, cell-based; conditions: Dual-Go Shn3RL
cells [12] = assay: cells
[13] = Luminescence Cell-Based Dose Response to Identify Activators of 5'UTR Stem-Loop Driven Prion Protein mRNA Translation in H4-C Neuroglioblastoma Cells. [Related pubchem assays: 1829 (Project Summary), 1814 (Primary HTS)]; type: functional
[14] = Luminescence Cell-Based Dose Confirmation HTS to Identify Activators of 5'UTR Stem-Loop Driven Alpha-Synuclein mRNA Translation in H4 Neuroglioblastoma Cells. [Related pubchem assays: 1829 (Project Summary), 1814 (Primary HTS)]; type: functional
[15] = Luminescence Cell-Based Dose Response HTS to Identify Activators of Luciferase Translation or Activity in H4 […] Cells. [Related pubchem assays: 1829 (Project Summary), 1814 (Primary HTS)]; type: functional
H4 = assay: Luminescence Cell-Based Dose Response HTS to Identify Activators of 5'UTR Stem-Loop Driven Prion Protein mRNA Translation in H4 Neuroglioblastoma Cells. [Related pubchem assays: 1829 (Project Summary), 1814 (Primary HTS)]; type: functional; conditions: Homo sapiens
[16] = Luminescence Cell-Based Dose Response to Identify Activators of Luciferase Translation or Activity in H4-C Neuroglioblastoma Cells. [Related pubchem assays: 1829 (Project Summary), 1814 (Primary HTS)]; type: functional
[17] = Luminescence Cell-Based Dose Confirmation to Identify Activators of 5'UTR Stem-Loop Driven Alpha-Synuclein mRNA Translation in H4 Neuroglioblastoma Cells. [Related pubchem assays: 1829 (Project Summary), 1814 (Primary HTS)]; type: functional
[18] = activation of miR-122 Renilla sensor silencing – cell-based, Huh7 psiCHECK-miR122, Renilla luciferase, cherry-picked, dose response (AID 651956); type: functional;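 also: huh7 hepatoma cells stably carrying a psiCHECK-2 miR-122 sensor plasmid; renilla luciferase signal reporting endogenous miR-122 activity after 48 h compound exposure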
[19] = general mammalian cell viability loss – inhibitor set, cherry-pick, set 2, cytotoxicity control for miR-122 modulator project, dose response (AID 720697); type: functional, cell-based
[20] = general mammalian cell viability loss – activator set, cherry-pick, cytotoxicity control for miR-122 modulator project, dose response (AID 720690); type: functional, cell-based;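 also: HEK293T human cells scored for general mammalian cytotoxicity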
Cytochrome P450 3A4 = Cytochrome P450 3A4 (Homo sapiens, UniProt P08684);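 also: CYP3A4 tested as one member of a cytochrome P450 panel screen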
[21] = molecular target: T3, Oxysterols receptor LXR-beta (Homo sapiens, UniProt P55055); type: functional, cell-based;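 also: agonist activity at LXR measured by a cell-based luminescence readout across a dose range, run as a counterscreen for daf-12 agonists; HEK293 cells with Gal4-LXR fusion and GAL4-driven luciferase reporter; potency for activation of Gal4-LXR reporter so compounds are agonists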
T3 sequence (P55055 whole entry): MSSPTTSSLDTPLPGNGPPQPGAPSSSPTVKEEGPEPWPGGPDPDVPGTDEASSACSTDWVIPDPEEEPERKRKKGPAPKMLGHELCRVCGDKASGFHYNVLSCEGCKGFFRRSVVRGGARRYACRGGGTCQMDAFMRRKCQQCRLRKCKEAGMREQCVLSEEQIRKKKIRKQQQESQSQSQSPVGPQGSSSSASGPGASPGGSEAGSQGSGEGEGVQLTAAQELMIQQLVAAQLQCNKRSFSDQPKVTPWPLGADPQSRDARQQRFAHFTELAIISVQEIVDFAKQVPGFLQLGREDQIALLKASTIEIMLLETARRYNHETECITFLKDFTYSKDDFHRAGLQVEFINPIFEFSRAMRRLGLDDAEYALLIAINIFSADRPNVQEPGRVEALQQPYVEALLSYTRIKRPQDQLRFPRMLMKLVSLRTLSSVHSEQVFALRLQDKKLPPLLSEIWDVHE

HEK293 = assay: viability loss in HEK293T cells – cell-based, ATP luminescence, cherry-pick samples, cytotoxicity control, dose response (AID 687005); type: functional; conditions: Homo sapiens;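 also: cells exposed to compound for 48 hours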
[22] = HEK293 Cytotoxicity Assay Measured in Cell-Based System Using Plate Reader - 7071-01_Inhibitor_Dose_CherryPick_Activity_Set2.; type: functional
[23] = molecular target: Potassium channel subfamily K member 3 (Homo sapiens, UniProt O14649); assay: inhibition of human KCNK3 channel flux – CHO cells, FluxOR thallium flux, SAR follow-up (AID 652212); type: functional
[24] = human cervical cancer cell viability loss – 24 h, plate reader, dry powder, cytotoxicity control, dose response (AID 686928); type: functional, cell-based; conditions: HeLa
[25] = HEK293T viability loss – cell-based, ATP luminescence, dry powder, Set6, cytotoxicity control, dose response (AID 743142); type: functional; conditions: HEK293
[26] = viability loss in A549 lung cancer cells – cell-based, CellTiter-Glo luminescence, dry powder, set 3, cytotoxicity control, dose response (AID 743146); type: functional
[27] = MITF Orthogonal Assay: SK-MEL-5 CTG Assay Measured in Cell-Based System Using Plate Reader - 2084-02_Inhibitor_Dose_DryPowder_Activity_Set7.; type: functional
[28] = MITF: Counter assay: A375 proliferation Measured in Cell-Based System Using Plate Reader - 2084-03_Inhibitor_Dose_DryPowder_Activity_Set8.; type: functional; conditions: A-375
[29] = inhibitors of TRPM1-promoter reporter in SK-MEL-5 – cell-based, luciferase, dry powder, set 8, MITF inhibitor project, dose response (AID 624430); type: functional
[30] = molecular target: Metabotropic glutamate receptor 3 (Rattus norvegicus, UniProt P31422); assay: inhibition of rat mGlu3 glutamate signaling – HEK/GIRK cells, thallium flux, dose response (AID 651839); type: functional
[31] = M. tuberculosis growth inhibition, HTS (AID 449762); type: functional
NS3 = NS3 (Hepatitis C virus, UniProt A3EZJ3); assay: NS3h DNA-binding inhibition IC50 – biochemical, fluorescence polarization, ChemBridge library, dose response (AID 743264)
Cytochrome P450 2C9 = Cytochrome P450 2C9 (Homo sapiens, UniProt P11712)
Chain of Cytochrome P450 2C9 (P11712 whole entry): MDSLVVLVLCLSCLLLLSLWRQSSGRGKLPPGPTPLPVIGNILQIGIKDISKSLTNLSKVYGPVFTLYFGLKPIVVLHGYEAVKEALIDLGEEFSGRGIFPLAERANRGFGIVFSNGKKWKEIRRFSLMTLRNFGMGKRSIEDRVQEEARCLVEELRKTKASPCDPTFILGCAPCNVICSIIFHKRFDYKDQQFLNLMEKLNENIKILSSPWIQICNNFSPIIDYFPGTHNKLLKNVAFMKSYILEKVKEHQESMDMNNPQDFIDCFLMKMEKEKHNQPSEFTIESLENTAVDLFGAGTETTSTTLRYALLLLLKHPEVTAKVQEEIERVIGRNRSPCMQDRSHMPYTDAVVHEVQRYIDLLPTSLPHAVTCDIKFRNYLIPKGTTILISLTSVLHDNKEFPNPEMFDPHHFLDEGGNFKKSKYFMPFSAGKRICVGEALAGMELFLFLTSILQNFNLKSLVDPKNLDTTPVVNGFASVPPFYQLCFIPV

Chain of NS3 (A3EZJ3 whole entry): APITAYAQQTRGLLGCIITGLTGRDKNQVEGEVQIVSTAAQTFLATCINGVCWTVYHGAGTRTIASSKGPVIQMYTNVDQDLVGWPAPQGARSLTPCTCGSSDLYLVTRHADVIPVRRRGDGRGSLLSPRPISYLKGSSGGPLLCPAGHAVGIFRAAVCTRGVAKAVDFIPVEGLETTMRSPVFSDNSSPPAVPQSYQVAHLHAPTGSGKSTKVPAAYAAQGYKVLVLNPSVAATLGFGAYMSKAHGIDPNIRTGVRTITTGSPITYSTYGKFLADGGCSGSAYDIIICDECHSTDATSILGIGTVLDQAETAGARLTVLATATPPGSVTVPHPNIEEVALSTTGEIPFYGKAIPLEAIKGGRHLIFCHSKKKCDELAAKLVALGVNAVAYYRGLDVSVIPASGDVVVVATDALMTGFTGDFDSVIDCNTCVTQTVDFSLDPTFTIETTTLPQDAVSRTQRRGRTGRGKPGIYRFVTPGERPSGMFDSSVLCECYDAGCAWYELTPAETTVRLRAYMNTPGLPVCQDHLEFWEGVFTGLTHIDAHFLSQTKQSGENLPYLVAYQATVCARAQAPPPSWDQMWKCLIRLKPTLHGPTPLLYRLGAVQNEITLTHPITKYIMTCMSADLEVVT
Chain of Potassium channel subfamily K member 3 (O14649 whole entry): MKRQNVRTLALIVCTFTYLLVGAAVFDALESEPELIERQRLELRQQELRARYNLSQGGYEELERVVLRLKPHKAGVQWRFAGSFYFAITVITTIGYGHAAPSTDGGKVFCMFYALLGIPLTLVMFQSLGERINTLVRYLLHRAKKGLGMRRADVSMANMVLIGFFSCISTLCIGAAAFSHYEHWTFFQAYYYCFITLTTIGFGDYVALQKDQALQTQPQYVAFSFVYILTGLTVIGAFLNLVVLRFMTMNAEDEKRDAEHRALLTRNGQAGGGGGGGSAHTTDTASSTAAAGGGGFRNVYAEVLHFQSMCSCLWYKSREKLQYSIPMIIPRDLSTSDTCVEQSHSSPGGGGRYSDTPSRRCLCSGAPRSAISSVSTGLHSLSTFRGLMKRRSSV
Chain of Metabotropic glutamate receptor 3 (P31422 whole entry): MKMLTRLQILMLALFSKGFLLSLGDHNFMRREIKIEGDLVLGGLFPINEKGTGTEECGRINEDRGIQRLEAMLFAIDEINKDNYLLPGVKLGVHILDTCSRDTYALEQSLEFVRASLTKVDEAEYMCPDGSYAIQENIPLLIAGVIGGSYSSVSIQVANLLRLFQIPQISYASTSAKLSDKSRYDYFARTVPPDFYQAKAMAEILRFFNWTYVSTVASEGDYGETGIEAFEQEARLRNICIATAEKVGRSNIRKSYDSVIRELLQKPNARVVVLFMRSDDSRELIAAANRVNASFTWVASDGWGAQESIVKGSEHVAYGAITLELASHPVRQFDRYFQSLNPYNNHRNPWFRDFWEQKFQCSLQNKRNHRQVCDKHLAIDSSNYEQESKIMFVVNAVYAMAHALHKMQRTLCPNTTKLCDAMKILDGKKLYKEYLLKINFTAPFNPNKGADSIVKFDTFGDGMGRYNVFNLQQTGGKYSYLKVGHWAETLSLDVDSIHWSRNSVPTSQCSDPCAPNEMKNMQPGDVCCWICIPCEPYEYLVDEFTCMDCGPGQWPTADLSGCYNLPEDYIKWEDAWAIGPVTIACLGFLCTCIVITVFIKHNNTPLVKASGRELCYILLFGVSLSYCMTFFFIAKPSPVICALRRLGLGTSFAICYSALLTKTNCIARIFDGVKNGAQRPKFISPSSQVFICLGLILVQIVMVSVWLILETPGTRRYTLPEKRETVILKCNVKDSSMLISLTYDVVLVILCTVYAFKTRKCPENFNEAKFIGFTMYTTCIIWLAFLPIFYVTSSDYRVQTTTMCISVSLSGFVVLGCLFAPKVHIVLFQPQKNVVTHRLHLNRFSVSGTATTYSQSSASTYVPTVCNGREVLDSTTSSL
Chain of Cytochrome P450 3A4 (P08684 whole entry, the tested form may be a part): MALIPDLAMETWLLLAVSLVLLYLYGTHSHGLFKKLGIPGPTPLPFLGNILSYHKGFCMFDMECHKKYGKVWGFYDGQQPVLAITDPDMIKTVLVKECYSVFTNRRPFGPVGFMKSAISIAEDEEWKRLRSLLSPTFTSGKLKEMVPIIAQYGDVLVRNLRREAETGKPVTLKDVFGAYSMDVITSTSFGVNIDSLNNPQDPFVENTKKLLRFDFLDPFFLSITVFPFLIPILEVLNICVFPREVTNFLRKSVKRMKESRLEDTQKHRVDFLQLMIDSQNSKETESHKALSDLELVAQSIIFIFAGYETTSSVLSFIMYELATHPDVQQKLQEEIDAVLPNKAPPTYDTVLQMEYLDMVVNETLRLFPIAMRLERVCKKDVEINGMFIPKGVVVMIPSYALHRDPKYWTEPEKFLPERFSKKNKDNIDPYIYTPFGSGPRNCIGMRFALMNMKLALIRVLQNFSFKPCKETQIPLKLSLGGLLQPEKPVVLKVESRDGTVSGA

COc1ccc(-c2cc(C(F)(F)F)nc(S(C)(=O)=O)n2)cc1
CC50 [1]: 26 µM (active) | AC50 [2]: 3.81 µM (active) | IC50 (cells [3]): 10.9 µM (active) | AC50 [4]: 5.99 µM (active) | EC50 (Protein RecA): 4.88 µM (active) | AC50 [5]: 4.46 µM (active) | AC50 [6]: 45.9 µM (active) | AC50 [7]: 26.3 µM (active) | IC50 [8]: 5.47 µM (active) | AC50 [9]: 5.05 µM (active) | AC50 [10]: 15.3 µM (active) | AC50 [11]: 48.6 µM (active)

COc1cc(C(=O)NCCCNc2nc3c(C)cc(C)cc3cc2C#N)cc(OC)c1OC
AC50 (cells [12]): 4.79 µM (active)

CCOC(=O)c1cc2c(C)n(-c3ccc(C)cc3)c(C)c2ccc1=O
EC50 [13]: 0.333 µM (active) | EC50 [14]: 0.1 µM (active) | EC50 [15]: < 0.1 µM (active) | EC50 (H4): < 0.1 µM (active) | EC50 [16]: 0.376 µM (active) | EC50 [17]: 0.262 µM (active) | AC50 [18]: 1.46 µM (active) | AC50 [19]: 7.08 µM (active) | AC50 [20]: 3.93 µM (active) | AC50 (Cytochrome P450 3A4): inconclusive

Cc1ccc(N/C=C(/C#N)c2ccsc2)cc1C
EC50 [21]: > 67.5 µM (inactive)

COc1ccccc1-c1ccc([C@H]2[C@H](C#N)N(C(=O)C3CC3)[C@H]2CO)cc1
AC50 (HEK293): 24.8 µM (active) | AC50 [22]: 24.8 µM (active)

CCOc1ccccc1NC(=O)c1cccc(C(=O)NC2CCCC2)c1
IC50 [23]: 0.342 µM (active)

O=C(Nc1nnc(C2CCCC2)o1)C1CCCCC1
AC50 [24]: 165 µM (active)

O=C(CCNC(=O)c1ccc(C(F)(F)F)cc1)N[C@@H]1CCCc2ccccc21
AC50 [25]: 7.54 µM (active) | AC50 [26]: 26 µM (active)

COc1ccc(NC2=C(N3CCN(C(C)C)CC3)C(=O)c3ccccc3C2=O)cc1
AC50 [27]: 16.6 µM (active) | AC50 [28]: 45 µM (active) | AC50 [29]: 3.28 µM (active)

COc1ccc(-c2ccc3cc(C(=O)N4CCCC(CO)C4)ccc3c2)cn1 (configuration not stated)
IC50 [30]: 6.77 µM (active)

O=C(O)Cc1c[nH]c2ccc(O)cc12
IC50 [31]: > 100 µM (active) | IC50 (NS3): 69.3 µM (active) | AC50 (Cytochrome P450 2C9): inconclusive
